Results: article PMC8715119, “Second-generation non-hematopoietic erythropoietin-derived peptide for neuroprotection” (Redox Biology, 2021)

Key:
[1] = as previously reported; cited from earlier work
Protocol: (§1) All peptides including ML1, ML1-c1, ML1-c2, ML1-c3, ML1-h1, ML1-h2, and ML1-h3 were synthesized as monomers by solid-phase peptide synthesis. […] To evaluate the purity and concentration of the peptides, LC/MSD (HP 1100 series) and HPLC analyses (SHIMADZU prominence HPLC) were performed. We obtained peptides having >95% purity and then dissolved with DMSO or water as a high ...

EPOR = details: as previously reported; cited from earlier work
Protocol: as §1

EphB4 (Homo sapiens) = EphB4 (Homo sapiens) (UniProt P54760); details: cited from earlier work
[2] = tested on: differentiated neuronal PC12 cells; assay: Cellular ROS level by H2DCFDA under H2O2; type: cell-based, rat; details: H2O2 for 6 h; H2DCFDA staining; n = 5; Fig. 4b
Protocol: (§2) PC12 cells (#CRL-1721, ATCC, USA), a rat pheochromocytoma cell line derived from the adrenal medulla (#CRL-1721, ATCC, USA), were seeded on a dish, which was coated by poly L-lysine (0.01%; Sigma Chemical Co., USA), and grown in RPMI 1640 medium (#11875093, Gibco, USA), supplemented with 10% heat-inactivated horse serum (#26050088, Gibco, USA), 5% fetal bovine serum (FBS) (#SH30919.03, Hyclone, USA), and 1% penicillin/streptomycin at 37°C with 5% CO2. For neuronal differentiation, PC12 cells were plated at a density of 1.25x10^3 cell/cm^2 into 96-well plates coated with collagen 1 (#354236, BD Biosciences, USA) and grown in RPMI 1640 medium supplemented with 50 ng/ml nerve growth factor (NGF) (BD Biosciences, USA) and 0.5% FBS for 10 days. The NGF-supplemented media was replaced with fresh media every 3 days during neuronal differentiation.
The cellular ROS level was measured using 2′,7′-dichlorodihydrofluorescein diacetate (H2DCFDA) (#D399, Invitrogen, USA). The cells were incubated with 5 μM H2DCFDA in PBS for 30 min, washed with PBS, and then resuspended in the medium for 2 h. After treatment of H2O2 without or with reEPO, or peptide, we monitored the oxidative stress by measuring the fluorescence intensities of H2DCFDA by using excitation and emission wavelengths of 485 nm and 535 nm, respectively.

[3] = tested on: undifferentiated PC12 cells; assay: Cell proliferation (MTS) under low serum; type: cell-based, rat; details: 0.5% fetal bovine serum, 48 h, reEPO 10 IU/ml, peptides 10 ng/ml, n = 5, Fig. 4c
Protocol: PC12 cells (#CRL-1721, ATCC, USA), a rat pheochromocytoma cell line derived from the adrenal medulla (#CRL-1721, ATCC, USA), were seeded on a dish, which was coated by poly L-lysine (0.01%; Sigma Chemical Co., USA), and grown in RPMI 1640 medium (#11875093, Gibco, USA), supplemented with 10% heat-inactivated horse serum (#26050088, Gibco, USA), 5% fetal bovine serum (FBS) (#SH30919.03, Hyclone, USA), and 1% penicillin/streptomycin at 37°C with 5% CO2. […]
Cell viability was evaluated by 3-[(4,5-dimethylthiazol-2-yl)-5,3-carboxymethoxyphenyl]-2-(4-sulfophenyl)-2H tetrazolium, inner salt (MTS) reduction assay (CellTiter 96 Aqueous One Solution Cell Proliferation Assay, Promega, Madison, WI, USA). […] The intracellular soluble formazan produced by cellular reduction of the MTS was determined by recording the absorbance at 490 nm using a microplate reader (VersaMax, Molecular Devices, USA). Cell proliferation was also evaluated by the MTS assay. […] The next day, the initial cell number was counted; after 48 h, under low FBS concentration (0.5%), with or without reEPO and peptides, cell number was measured by the MTS assay.

[4] = tested on: differentiated neuronal PC12 cells; assay: Cell viability (MTS) under H2O2-induced oxidative stress; type: cell-based, rat; details: 300 μM H2O2 for 24 h; peptides 1 ng/ml, reEPO 0.5 IU/ml; MTS; n = 3; Fig. 1c
Protocol: as §2
Cell viability was evaluated by 3-[(4,5-dimethylthiazol-2-yl)-5,3-carboxymethoxyphenyl]-2-(4-sulfophenyl)-2H tetrazolium, inner salt (MTS) reduction assay (CellTiter 96 Aqueous One Solution Cell Proliferation Assay, Promega, Madison, WI, USA). Briefly, differentiated neuronal-PC12 cells were treated with H2O2 (300 μM) with or without reEPO and peptides for 24 h. The PC12 cells were washed with PBS; 20 ul MTS solution was added to each well with 100 μl PBS, and the cells were incubated for 3 h at 37°C and 5% CO2. The intracellular soluble formazan produced by cellular reduction of the MTS was determined by recording the absorbance at 490 nm using a microplate reader (VersaMax, Molecular Devices, USA). Cell proliferation was also evaluated by the MTS assay. Undifferentiated PC12 cells were seeded into a 96-well plate (5x10^4 cells/well). The next day, the initial cell number was counted; after 48 h, under low FBS concentration (0.5%), with or without reEPO and peptides, cell number was measured by the MTS assay.

[5] = target: T1, Soluble recombinant human EPOR-Fc chimera protein (human, UniProt P19235 25-250); assay: SPR; Reichert SR 7500 C; EPOR-Fc covalently immobilised by amine coupling on a carboxymethylated dextran chip; peptides at 5, 2.5 and 1.25 uM flowed at 5 ul/min, in duplicate; regeneration with 25 mM acetic acid; details: both partners purified
T1 construct: erythropoietin receptor (EPOR), human, soluble form fused to Fc; the discussion says the SPR analysis was based on only the extracellular domain of EPOR; also called erythropoietin receptor; source: bought: R&D Systems (#963-ER)
T1 sequence (looked up): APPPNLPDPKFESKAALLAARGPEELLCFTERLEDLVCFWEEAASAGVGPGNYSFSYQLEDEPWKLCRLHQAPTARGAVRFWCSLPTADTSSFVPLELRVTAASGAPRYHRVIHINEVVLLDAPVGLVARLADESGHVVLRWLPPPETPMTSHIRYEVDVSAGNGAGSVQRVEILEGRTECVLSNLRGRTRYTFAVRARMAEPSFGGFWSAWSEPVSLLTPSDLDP

Chain of EphB4 (Homo sapiens) (P54760 16-539): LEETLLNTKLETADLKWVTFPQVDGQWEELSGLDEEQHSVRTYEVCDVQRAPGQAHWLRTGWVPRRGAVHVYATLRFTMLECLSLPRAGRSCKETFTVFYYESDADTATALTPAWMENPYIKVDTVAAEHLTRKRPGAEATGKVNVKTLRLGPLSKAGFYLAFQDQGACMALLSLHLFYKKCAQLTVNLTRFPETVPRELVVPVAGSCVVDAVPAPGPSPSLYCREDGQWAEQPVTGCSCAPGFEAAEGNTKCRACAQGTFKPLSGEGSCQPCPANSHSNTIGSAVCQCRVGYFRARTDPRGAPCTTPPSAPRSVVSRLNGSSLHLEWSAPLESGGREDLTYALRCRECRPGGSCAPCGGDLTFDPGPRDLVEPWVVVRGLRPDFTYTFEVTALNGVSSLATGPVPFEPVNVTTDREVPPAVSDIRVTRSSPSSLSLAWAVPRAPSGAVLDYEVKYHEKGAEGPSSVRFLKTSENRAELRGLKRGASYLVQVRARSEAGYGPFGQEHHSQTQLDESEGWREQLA

Molecule: AMELSGRTLGLILKLRQSATL [negative control peptide]
- Effect on cell survival and proliferation [1]: unaffected cell survival and proliferation
- Binding to EPOR (EPOR): did not bind to EPOR

Molecule: EPO (from UniProt P01588)
- Kd (EphB4 (Homo sapiens)): 880 nM

Molecule: ML1: monomeric peptide spanning 118Leu-140Gly of helix C of EPO; prototype for second-generation EPO-derived peptide (LQLHVDKAVSGLRSLTTLLRALG)
- Level of reactive oxygen species (ROS) induced by H2O2 [2]: decreased the levels of reactive oxygen species (ROS)
- Cell proliferation (cell number) [3]: did not induce proliferation
- Cell viability (neuroprotective effect) against H2O2 [4]: a better neuroprotective effect than reEPO

Molecule: ML4: monomeric peptide spanning 127Ser-140Gly of helix C of EPO
- Cell viability (neuroprotective effect) against H2O2 [4]: showed a neuroprotective effect

B1: ML1 (peptide, UniProt P01588 118-140, looked up)
peptide: LQLHVDKAVSGLRSLTTLLRALG
notes: Monomeric peptide; also called ML1 prototype; source: synthetic peptide (solid-phase synthesis, monomer, >95% purity; bought: Peptron Inc.)
- binding result [5]: binds
